According to patent publication US8946290B2, “Combination of selected opioids with muscarine antagonists for treating urinary incontinence” (Gruenenthal GmbH, priority 2001, dated 2015):

Test system: bladder function
Test: Cystometry on anaesthetized naive rats
Format: in vivo
Settings: anaesthetized naive female rats, rate of contractions (micturition events/min)
Method: The cystometric investigation on naive female rats was carried out by the method of Kimura et al. (Kimura et al., 1996, Int. J. Urol. 3:218-227). The abdomen of anaesthetized, ventilated rats is opened up and the ureter is ligated. The urine is drained from the kidneys. A catheter is inserted into the bladder and fixed. […] After stable starting values are reached, the test substance is administered intravenously. An influence on bladder function manifests itself via suppression of the spontaneous contractions.
In the present example, compound A ((+)-(2R,3R)-1-dimethylamino-3-(3-methoxy-phenyl)-2-methyl-pentan-3-ol; hydrochloride) in the dosage of 0.1 mg/kg intravenous was combined with compound B (oxybutynin) in the dosage of 0.03 mg/kg intravenous and the action of this combination was compared with that of the individual substances.

SMILES | Inhibition of the rate of contractions compared with the pretest (0.1 mg/kg i.v.) | Inhibition of the rate of contractions compared with the pretest (0.03 mg/kg i.v.)
CC[C@](O)(c1cccc(OC)c1)[C@H](C)CN(C)C.Cl [Compound A, (+)-(2R,3R)-1-dimethylamino-3-(3-methoxy-phenyl)-2-methyl-pentan-3-ol; hydrochloride] | 21.7% MPE | –
CCN(CC)CC#CCOC(=O)C(O)(c1ccccc1)C1CCCCC1 (centres unmarked) [Compound B, oxybutynin] | – | 10.7% MPE
